Holding throughout (type): functional
For assay [1], the system named is Panonychus citri. In words: Ovicidal activity against Panonychus citri in mandarin orange leaf assessed as egg mortality at 25 degC measured after 7 days. The conditions noted are these: 168 h.
Assay [2] concerns Panonychus citri. Kind of assay: Adulticidal activity against Panonychus citri in mandarin orange leaf assessed as mortality at 25 degC measured after 2 days. The conditions noted are these: 48 h.
In assay [3] the test system is Tetranychus urticae. In words: Ovicidal activity against Tetranychus urticae (two-spotted spider mite) in kidney bean leaf assessed as egg mortality at 25 degC measured after 7 days. The conditions noted are these: 168 h.
Assay [4] has as its system Tetranychus urticae. In words: Adulticidal activity against Tetranychus urticae (two-spotted spider mite) in kidney bean leaf assessed as mortality at 25 degC measured after 2 days. Conditions: 48 h.
The test system of assay [5] is Tetranychus urticae. In words: Acaricidal activity against Tetranychus urticae (two-spotted spider mite) in kidney bean leaf assessed as mortality at 500 ppm at 25 degC measured after 5 days. The conditions noted are these: 120 h.
Assay [6] deals with Tetranychus urticae. Kind of assay: Acaricidal activity against Tetranychus urticae (two-spotted spider mite) in kidney bean leaf assessed as mortality at 3.1 ppm at 25 degC measured after 5 days. The conditions noted are these: 120 h.
Assay [7] relates to Tetranychus urticae. Kind of assay: Acaricidal activity against Tetranychus urticae (two-spotted spider mite) in kidney bean leaf assessed as mortality at 12.5 ppm at 25 degC measured after 5 days. Conditions: 120 h.
Assay [8] deals with Tetranychus urticae. Kind of assay: Acaricidal activity against Tetranychus urticae (two-spotted spider mite) in kidney bean leaf assessed as mortality at 50 ppm at 25 degC measured after 5 days. The conditions noted are these: 120 h.
Assay [9] deals with Tetranychus urticae. Kind of assay: Acaricidal activity against Tetranychus urticae (two-spotted spider mite) in kidney bean leaf assessed as mortality at 200 ppm at 25 degC measured after 5 days. The conditions noted are these: 120 h.

≈ marks a conversion by molar mass, not a printed value.

`CCc1nn(C)c(C(=O)NCc2ccc(C(C)(C)C)cc2)c1Br`: the median lethal concentration (LC50) in the assay with Panonychus citri [1] was found to be 10 µg/mL (≈ 26.4 µM); with Panonychus citri [2] it was 0.59 µg/mL (≈ 1.56 µM); in the assay with Tetranychus urticae [3], 1.4 µg/mL (≈ 3.7 µM); in the assay on Tetranychus urticae [4], 7.1 µg/mL (≈ 18.8 µM).

With `Cc1nn(C)c(C(=O)NCc2ccc(C(C)(C)C)cc2)c1C`, in the assay on Tetranychus urticae [5], the mortality at 500 ppm was found to be 100%. The median lethal concentration (LC50) in the assay on Panonychus citri [1] came to 36 µg/mL (≈ 120 µM); with Panonychus citri [2] it was 6.1 µg/mL (≈ 20.4 µM); in the assay on Tetranychus urticae [3], 8.8 µg/mL (≈ 29.4 µM); in the assay with Tetranychus urticae [4] it was 7.5 µg/mL (≈ 25 µM). For the same compound, the mortality at 3.1 ppm in the assay with Tetranychus urticae [6] amounted to 0%. In addition, the mortality at 12.5 ppm in the assay with Tetranychus urticae [7] was 100%. Also, the mortality at 50 ppm with Tetranychus urticae [8] was 100%. The mortality at 200 ppm with Tetranychus urticae [9] came to 100%.

Take `Cc1nn(C)c(C(=O)NCc2ccc(C(C)(C)C)cc2)c1C#N`: the mortality at 500 ppm in the assay with Tetranychus urticae [5] is 0%. The mortality at 3.1 ppm with Tetranychus urticae [6] worked out at 0%. In the assay with Tetranychus urticae [7], the mortality at 12.5 ppm came to 0%. In addition, in the assay on Tetranychus urticae [8], the mortality at 50 ppm amounted to 0%. Also, the mortality at 200 ppm in the assay on Tetranychus urticae [9] was 0%.

For the compound `Cc1nn(C)c(C(=O)NCc2ccc(C(C)(C)C)cc2)c1[N+](=O)[O-]`, in the assay on Tetranychus urticae [5], the mortality at 500 ppm came out at 0%. Besides, the mortality at 3.1 ppm in the assay on Tetranychus urticae [6] turned out to be 0%. Further, in the assay on Tetranychus urticae [7], the mortality at 12.5 ppm amounted to 0%. Further, in the assay on Tetranychus urticae [8], the mortality at 50 ppm is 0%. Also, the mortality at 200 ppm in the assay with Tetranychus urticae [9] worked out at 0%.

For the compound `Cc1nn(C)c(C(=O)NCc2ccc(C(C)(C)C)cc2)c1N`, the mortality at 500 ppm in the assay with Tetranychus urticae [5] stood at 0%. The mortality at 3.1 ppm in the assay on Tetranychus urticae [6] is 0%. Besides, in the assay on Tetranychus urticae [7], the mortality at 12.5 ppm turned out to be 0%. Further, in the assay with Tetranychus urticae [8], the mortality at 50 ppm came to 0%. The mortality at 200 ppm in the assay on Tetranychus urticae [9] turned out to be 0%.

`CC(=O)Nc1c(C)nn(C)c1C(=O)NCc1ccc(C(C)(C)C)cc1`: the mortality at 500 ppm in the assay with Tetranychus urticae [5] worked out at 0%. The mortality at 3.1 ppm with Tetranychus urticae [6] is 0%. Besides, in the assay with Tetranychus urticae [7], the mortality at 12.5 ppm was found to be 0%. Moreover, the mortality at 50 ppm in the assay on Tetranychus urticae [8] was found to be 0%. Further, the mortality at 200 ppm with Tetranychus urticae [9] was found to be 0%.

`CCCCc1nn(C)c(C(=O)NCc2ccc(C(C)(C)C)cc2)c1Cl`: the mortality at 500 ppm in the assay with Tetranychus urticae [5] turned out to be 0%. Also, the mortality at 3.1 ppm with Tetranychus urticae [6] came out at 0%. Further, the mortality at 12.5 ppm with Tetranychus urticae [7] stood at 0%. Moreover, the mortality at 50 ppm with Tetranychus urticae [8] was determined as 0%. The mortality at 200 ppm in the assay on Tetranychus urticae [9] worked out at 0%.

In the case of `CC(C)Cc1nn(C)c(C(=O)NCc2ccc(C(C)(C)C)cc2)c1Cl`, in the assay with Tetranychus urticae [5], the mortality at 500 ppm came out at 0%. The mortality at 3.1 ppm in the assay with Tetranychus urticae [6] came out at 0%. The mortality at 12.5 ppm in the assay with Tetranychus urticae [7] turned out to be 0%. In the assay on Tetranychus urticae [8], the mortality at 50 ppm is 0%. The mortality at 200 ppm in the assay with Tetranychus urticae [9] is 0%.

Turning to `Cn1nc(-c2ccccc2)c(Cl)c1C(=O)NCc1ccc(C(C)(C)C)cc1`, the mortality at 500 ppm in the assay with Tetranychus urticae [5] turned out to be 0%. In the assay on Tetranychus urticae [6], the mortality at 3.1 ppm was 0%. In addition, the mortality at 12.5 ppm in the assay on Tetranychus urticae [7] came to 0%. In the assay with Tetranychus urticae [8], the mortality at 50 ppm is 0%. Further, the mortality at 200 ppm in the assay with Tetranychus urticae [9] was 0%.

With `Cc1nn(C)c(C(=O)NCc2ccc(C(C)(C)C)cc2)c1Br`, the mortality at 500 ppm with Tetranychus urticae [5] is 100%. In addition, the LC50 in the assay with Panonychus citri [1] was 17 µg/mL (≈ 46.7 µM); in the assay on Panonychus citri [2] it was 4 µg/mL (≈ 11 µM); in the assay with Tetranychus urticae [3] it was 3 µg/mL (≈ 8.24 µM); in the assay on Tetranychus urticae [4], 9.8 µg/mL (≈ 26.9 µM). For the same compound, in the assay on Tetranychus urticae [6], the mortality at 3.1 ppm came to 0%. Besides, in the assay with Tetranychus urticae [7], the mortality at 12.5 ppm was found to be 30%. Besides, in the assay on Tetranychus urticae [8], the mortality at 50 ppm was found to be 100%. Also, the mortality at 200 ppm in the assay on Tetranychus urticae [9] was 100%.

As to `Cc1nn(C)c(C(=O)NCc2ccc(C(C)(C)C)cc2)c1Cl`, the mortality at 500 ppm with Tetranychus urticae [5] is 100%. Also, the LC50 with Panonychus citri [1] stood at 9.9 µg/mL (≈ 31 µM); in the assay with Panonychus citri [2], 3.1 µg/mL (≈ 9.69 µM); in the assay on Tetranychus urticae [3] it was 2.4 µg/mL (≈ 7.5 µM); in the assay on Tetranychus urticae [4], 7.7 µg/mL (≈ 24.1 µM). The mortality at 3.1 ppm in the assay with Tetranychus urticae [6] is 30%. Further, the mortality at 12.5 ppm in the assay on Tetranychus urticae [7] came to 100%. In the assay with Tetranychus urticae [8], the mortality at 50 ppm was determined as 100%. The mortality at 200 ppm in the assay with Tetranychus urticae [9] stood at 100%.

As to `CCc1nn(C)c(C(=O)NCc2ccc(C(C)(C)C)cc2)c1Cl` [TEBUFENPYRAD], the mortality at 500 ppm with Tetranychus urticae [5] was found to be 100%. In addition, the 50% lethal concentration (LC50) in the assay with Panonychus citri [1] amounted to 3.9 µg/mL (≈ 11.7 µM); in the assay with Panonychus citri [2], 0.5 µg/mL (≈ 1.5 µM); with Tetranychus urticae [3] it was 0.96 µg/mL (≈ 2.88 µM); in the assay on Tetranychus urticae [4], 3.7 µg/mL (≈ 11.1 µM). Besides, the mortality at 3.1 ppm in the assay on Tetranychus urticae [6] amounted to 100%. The mortality at 12.5 ppm with Tetranychus urticae [7] turned out to be 100%. In addition, the mortality at 50 ppm with Tetranychus urticae [8] worked out at 100%. Also, the mortality at 200 ppm with Tetranychus urticae [9] was 100%.

As usually defined, the LC50 is the concentration that kills 50% of the test population. What is called mortality is the share of the test organisms that died.
